Measured values: patent US7485326B2, “Oral microemulsion composition comprising biphenyldimethyldicarboxylate and silybin” (Hanmi Pharm Co., Ltd., priority 2003, dated 2009)

Tests used:
liver damaged by CCl4 = experiment: Therapeutic effect on the liver damaged by carbon tetrachloride (Test Example 1); assay type: in vivo, Sprague Dawley rats; conditions: serum
Experimental: The therapeutic effect of the inventive oral microemulsion composition on the liver damaged by CCl4 was examined as follows.
Thirty-six 4 to 5-week old male Sprague Dawley rats were divided into six groups each consisting of 6 rats having an average body weight of 202±5g. The rats were acclimated to the cage environment set at 23±2° C. and 55±5% relative humidity. Then 50% (v/v) solution of carbon tetrachloride in corn oil was intraperitoneally administered to each rat of five experimental groups (Groups 1 to 5) at a dose of 0.75 ml/kg, twice a week (monday and friday) to induce hepatotoxicity.
The rats of Group 1 (negative control) were not treated with any therapeutic drug after the CCl4 injection. The rats of Group 2 (positive control) were orally administered with BDD suspended in 1% (w/v) CMC (carboxymethyl cellulose) once a day, six times a week after the CCl4 injection, in an amount corresponding to 25 mg/kg of BDD; the rats of Group 3, with a Carduus marianus extract suspended in 1% (w/v) CMC, in an amount corresponding to 175 mg/kg of the Carduus marianus extract (52.5 mg/kg as silybin); and the rats of Group 4, with a simple mixture of BDD and Carduus marianus extract suspended in 1% (w/v) CMC, in an amount corresponding to 25 mg/kg of BDD and 175 mg/kg of the Carduus marianus extract. The rats of Group 5 were orally administered with the formulation of Example 3 once a day, six times a week, in an amount corresponding to 3 mg/kg of BDD and 175 mg/kg of the Carduus marianusextract; and the rats of Group 6 (normal group) were not subjected to CCl4injection and no therapeutic drugs were administered thereto.
Four weeks after the administration, the rats were sacrificed and serum samples were taken according to a preset schedule. The serum ALT (alanine aminotransferase) and AST (aspartate aminotransferase) levels were measured in accordance with a conventional method, and the results are shown in Tables 1 and 2, respectively.

[1] = system: fatty liver induced by dl-ethionine; experiment: Therapeutic effect on the dl-ethionine-induced fatty liver (Test Example 3); assay type: in vivo, Sprague Dawley rats
Experimental: In order to examine the therapeutic effect of the inventive oral microemulsion composition, a test to measure the activity of restoring fatty liver induced by dl-ethionine was conducted as follows.
Six groups of rats, each consisting of 6 rats were prepared by the procedure of Test Example 1. A 2% (w/v) dl-ethionine saline solution was subcutaneously injected to each rat of five experimental groups (Groups 1 to 5) at a dosage of 200 mg/kg, twice a week to induce fatty liver.
The rats of Group 1 (negative control) were not treated with any therapeutic drug after the ethionine injection. The rats of Group 2 (positive control) were orally administered with BDD suspended in 1% (w/v) CMC once a day, five times a week after the ethionine injection, in an amount corresponding to 25 mg/kg of BDD; the rats of Group 3, with the Carduus marianus extract suspended in 1% (w/v) CMC, in an amount corresponding to 175 mg/kg of the Carduus marianus extract (52.5 mg/kg as silybin); and the rats of Group 4, with a simple mixture of BDD and Carduus marianusextract suspended in 1% (w/v) CMC, in an amount corresponding to 25mg/kg of BDD and 175 mg/kg of the Carduus marianus extract. The rats of Group 5 were orally administered with the formulation of Example 3 once a day, five times a week, in an amount corresponding to 3 mg/kg of BDD and 175 mg/kg of the Carduus marianus extract; and the rats of Group 6 (normal group) received neither ethionine injection nor any therapeutic drug.
One week after the administration, each rat was sacrificed, and the liver was extracted therefrom. The extracted liver was washed with saline, soaked in a 4-fold volume of potassium phosphate buffer (pH 7.5), and homogenized with a teflone-glass homogenizer. The homogenized liver was subjected to centrifugation at 600×g for 10 minutes to obtain a supernatant, which was subjected to centrifugations at 10,000×g for 20minutes, and then at […], to obtain a supernatant.
Then, the total cholesterol and triglyceride levels of each liver sample were measured by employing the supernatant in accordance with a conventional method, and the results are shown in Tables 5 and 6, respectively.

[2] = CCl4-treated rats, oral once a day six times a week, four weeks, BDD 25 mg/kg, extract 175 mg/kg, Example 3: 3 mg/kg BDD + 175 mg/kg extract
[3] = versus CCl4 control Group 1, four weeks
[4] = dl-ethionine-treated rats, oral once a day five times a week, one week, BDD 25 mg/kg, extract 175 mg/kg, Example 3: 3 mg/kg BDD + 175 mg/kg extract
[5] = versus ethionine control Group 1, one week

COC(=O)c1cc(OC)c2c(c1-c1c(C(=O)OC)cc(OC)c3c1OCO3)OCO2 [BDD, biphenyldimethyldicarboxylate]
ALT (average concentration ± standard deviation) (liver damaged by CCl4; [2]): 137.7 ± 19.5 SF U/ml
AST (average concentration ± standard deviation) (liver damaged by CCl4; [2]): 163.3 ± 4.5 SF U/ml
Ratio of ALT level to a control (liver damaged by CCl4; [3]): 91.7%
Ratio of AST level to a control (liver damaged by CCl4; [3]): 95.2%
Total Cholesterol (average concentration ± standard deviation) [1, 4]: 22.0 ± 1.9 mg/g
Triglyceride (average concentration ± standard deviation) [1, 4]: 10.1 ± 0.5 mg/g
Ratio of cholesterol level to a control [1, 5]: 91.3%
Ratio of triglylceride level to a control [1, 5]: 72.7%
